For data set [1], the system named is cardiazol-induced convulsive death in mice. As to the kind of experiment: Anti-cardiazol activity, protection from cardiazol-induced convulsive death. Type of data set: in vivo. The following applies: for ED50: Mus musculus, oral, 125 mg of cardiazol s.c. 30 minutes after dosing, protection at 60 minutes. As for the experimental part:
(§1) The quinazolinone derivative [I] of the present invention has potent tranquilizing, anti-convulsive and analgesic activities. […] On the other hand, when examined under the same condition as above, 200 mg of Mefenamic acid[Chemical name: N-(2,3-xylyl)anthranilic acid] are required to produce 25 % decrease in said carageenin-induced edema.
Anti-cardiazol activity. A drug was administered orally to mice. After 30
minutes of the dosing, 125 mg of cardiazol were injected subcutaneously t
the mice. ED50 of the drug was estimated from the number of mice
which were protected from cardiazol-induced convulsive death 60 minutes
after injection of cardiazol.

Data set [2] concerns mice. As to the kind of experiment: Muscle relaxing activity, traction method (oral, mice). In kind it is in vivo. The following applies: Mus musculus, 10, 20 and 30 minutes after dosing. As for the experimental part:
(§2) (A) :Activity examined by the traction method. A drug was administered
(§3) orally to mice. After 10, 20 and 30 minutes of the dosing, the mice were
(§4) suspended by the forepaws to a metallic wire of 1 mm in diameter.
(§5) ED50 of the drug was estimated from the number of mice which fell ou
(§6) of the wire within 10 seconds.

The test system of data set [3] is mice. As to the kind of experiment: Hypnotic activity, loss of righting reflex (oral, mice); therapeutic index. Type of data set: in vivo. The following applies: for hypnotic activity (side effect), in words: mouse, in vivo. As for the experimental part: (§7) (D) :A drug was administered orally to mice. The hypnotic activity of the
(§8) drug was determined by the number of mice which lost righting reflex for
(§9) more than 20 seconds. HD50 of the drug was estimated as the dose
(§10) which was required to produce the losing of righting reflex in 50 % of th
(§11) Therapeutic index and Safety margin: Said index and margin were calculate

Assay in data set [4]: as above
In kind it is in vivo. Conditions: mouse, in vivo, mice, oral; for selectivity ratio: po; for TD50: loss of righting reflex for more than 20 seconds in 50 % of the mice, read-out: Side effect: Hypnotic activity HD50 (D). As for the experimental part: as §7, §8, §9, §10, §11

Data set [5] concerns mice. Kind of data set: Muscle relaxing activity, inclined plate method (oral, mice). The following applies: Mus musculus, 15, 30 and 45 minutes after dosing, read-out: Muscle relaxing activity ED50 (B). Type of data set: in vivo. As to the method: (§12) (B) :Activity examined by the inclined plate method. A drug was
(§13) administered orally to mice. After 15, 30 and 45 minutes of the dosing,
(§14) the mice were put on the center of a canvas (60 cm in length and 50 cm in
(§15) width) having been set up with an inclination of 60 degrees. ED50 of
(§16) the drug was estimated from the number of mice which slipped down from th
(§17) canvas within one minute.

The test system of the next data set is carageenin-induced edema. As to the kind of experiment: Anti-inflammatory activity, carageenin-induced edema. Type of data set: in vivo, rats. As to the method:
as §1
Anti-inflammatory activity. A drug was administered orally to rats at the
dose of 30 mg/kg. To the control group was administered orally a
physiological saline solution. After one hour, one % carageenin solution
was injected subcutaneously to the rats through planta of hind legs at th
dose of 0.5 ml/rat. Then, the volume of the hind legs in the control and
medicated groups were measured at 3 hours after injection of carageenin,
and the preventive effect (%) of the drug against carageenin-induced edem
was calculated therefrom.

Data set [6] is described as follows: Tranquilizing activity (no method given). Conditions: in vivo.
In data set [7] the test system is mice. Kind of data set: Acute toxicity (oral, mice, 72 hours); safety margin. In kind it is in vivo. Conditions: vs 2-methyl-3-(o-tolyl)-6-amino-4(3H)-quinazolinone; ratio of muscle relaxing activity to acute toxicity. As to the method:
(§18) (E) :A drug was administered orally to mice. The 50 % lethal dose
(§19) (LD50) of the drug was estimated from the number of mice which died
(§20) 72 hours after the dosing.
as §11

Assay in data set [8]: as above
Type of data set: in vivo. Conditions: mouse, in vivo, mice, oral; for selectivity ratio: po; for LD50 at 72 h: died 72 hours after dosing, read-out: Side effect: Acute toxicity LD50 (E). As for the experimental part:
as §18, §19, §20, §11

Data set [9] concerns mice. Kind of data set: Muscle relaxing activity, rotating rod method (oral, mice). In kind it is in vivo. The following applies: Mus musculus, 0.5 h, 30 minutes after dosing, read-out: Muscle relaxing activity ED50 (C). As to the method: (§21) (C) :Activity examined by the rotating rod method. A drug was administere
(§22) orally to mice. After 30 minutes of the dosing, the mice were placed for
(§23) minutes on rotating rods (3.5 cm in diameter, 14 rpm.). ED50 of the
(§24) drug was estimated from the number of mice which fell out of the rods

The subject of data set [10] is acetic acid-induced writhings. As to the kind of experiment: Analgesic activity, acetic acid-writhing method. In kind it is in vivo, mice. Conditions: for ED50: Mus musculus, oral, mice, 1 % acetic acid i.p., 50 % reduction in writhings. As to the method:
as §1
Analgesic activity. One % acetic acid solution was injected
intraperitoneally to mice at the dose of […] after oral
administration of a drug, and the number of writhings per mouse was
counted for 5 minutes starting at 10 minutes after injection of acetic
acid. ED50 of the drug was estimated as the dose which would produce
50 % reduction in acetic acid-induced writhings.
(In general: In writhing tests, fewer writhes than in controls are read as antinociception.)

Data set [11] concerns mice. As to the kind of experiment: Central muscle relaxing activity (Table 1, traction, inclined plate and rotating rod methods together). The following applies: mouse, in vivo. As to the method: as §2, §3, §4, §5, §6, §12, §13, §14, §15, §16, §17, §21, §22, §23, §24
For data set [12] the following is noted: Arzneimittel Forshung 21(1971), 238-243; U.S. Pat. No. 3317388; cited from earlier work.
For data set [13] the following is noted: Japanese patent application No. 81910/1971; cited from earlier work.
The mark [14] stands for this setting: HD50 / ED50 inclined plate method, read-out: Therapeutic index D/B.
[15] abbreviates: HD50 / ED50 rotating rod method, read-out: Therapeutic index D/C.
The mark [16] stands for this setting: HD50 / ED50 traction method, read-out: Therapeutic index D/A.
Where [17] appears, read: LD50 / ED50 inclined plate method, read-out: Safety margin E/B.
The mark [18] stands for this setting: LD50 / ED50 rotating rod method, read-out: Safety margin E/C.
Where [19] appears, read: LD50 / ED50 traction method, read-out: Safety margin E/A.

For the compound `Cc1ccccc1-n1c(CF)nc2ccc(N)cc2c1=O` [quinazolinone derivative [I], 2-fluoromethyl-3-(o-tolyl)-6-amino-4(3H)-quinazolinone], the ED50 (usually the dose that gives a 50% effect, or the effect in half of the subjects) in data set [1] (mice) came out at 15.7 mg/kg; with mice [2], 20.7 mg/kg; in the data set with mice [5], 19.3 mg/kg; with mice [9] it was 22.4 mg/kg; in data set [10], 11.8 mg/kg. Also, the “anti-convulsive activity, in words” value in data set [1] (mouse, in vivo) is reported as “potent”. Besides, in [1] (vs 2-fluoromethyl-3-(o-tolyl)-4(3H)-quinazolinone, mice), the “anti-cardiazol activity, times superior to 2-fluoromethyl-3-(o-tolyl)-4(3H)-quinazolinone” value worked out at 3.6 times. In [1] (vs 2-methyl-3-(o-tolyl)-6-amino-4(3H)-quinazolinone, mice), the “anti-cardiazol activity, times superior to 2-methyl-3-(o-tolyl)-6-amino-4(3H)-quinazolinone” value amounted to 1.1 times. Further, the “anti-cardiazol activity (ED50), times superior to Chlormezanone” value in data set [1] (vs Chlormezanone, mice) is “about 2 times”. Further, the “hypnotic activity (side effect), in words” value (from here on “hypnotic activity”) with mice [3] was “relatively less hypnotic activity”. In addition, the “therapeutic index, times superior to Chlormezanone” value with mice [3] (vs Chlormezanone, ratio of muscle relaxing to hypnotic activity) was “about 2 times”. Besides, in the data set on mice [3] (vs Mephenesin, ratio of muscle relaxing to hypnotic activity), the “therapeutic index, times superior to Mephenesin” value is given as “about 2 times”. For the same compound, the selectivity ratio in [4] (setting [14]) is 2.75; in data set [4] (setting [15]), 2.37; in data set [4] (setting [16]), 2.57; in data set [8] (setting [17]), 27.4; in [8] (setting [18]), 23.6; in data set [8] (setting [19]), 25.5. In addition, the TD50 in [4] stood at 53.1 mg/kg. Moreover, the “Anti-inflammatory activity: preventive effect (%) against carageenin-induced edema” value with carageenin-induced edema (oral, rats, 30 mg/kg, 3 hours after carageenin) stood at 28%. The “anti-inflammatory activity, in words” value in the data set on carageenin-induced edema (rat, in vivo) is listed as “potent anti-inflammatory activity”. For the same compound, in data set [6], the “tranquilizing activity, in words” value is reported as “potent”. The “safety margin, times superior to 2-methyl-3-(o-tolyl)-6-amino-4(3H)-quinazolinone” value in the data set with mice [7] is “about 7 times”. Moreover, in [8], the LD50 (commonly the dose expected to kill half of the subjects tested) at 72 h stood at 528 mg/kg. Besides, the “analgesic activity (ED50) compared with Chlormezanone” value in [10] (acetic acid-writhing method, in words) is given as “apparently stronger than that of Chlormezanone”. The “analgesic activity, in words” value in [10] (mouse, in vivo) is “potent”.
With `Cc1ccccc1-n1c(C)nc2ccc(N)cc2c1=O` [2-methyl-3-(o-tolyl)-6-amino-4(3H)-quinazolinone], the “muscle relaxing activity, in words” value in the data set on mice [11] was “relatively strong muscle relaxing activity”. For the same compound, the ED50 in [1] (mice) worked out at 16.9 mg/kg; with mice [2], 24 mg/kg; in the data set with mice [5] it was 22.5 mg/kg; with mice [9] it was 22.5 mg/kg; in data set [10], 10 mg/kg. Besides, the TD50 in data set [4] was found to be 33.7 mg/kg. The “muscle relaxing activity, in words (Breuer et al)” value in data set [12] was “shows a muscle relaxing activity”.
With `Cc1ccccc1-n1c(CF)nc2ccccc2c1=O` [2-fluoromethyl-3-(o-tolyl)-4(3H)-quinazolinone], the ED50 is 56.1 mg/kg in data set [1] (mice); 138 mg/kg with mice [2]; 58.9 mg/kg with mice [5]; 67.5 mg/kg with mice [9]; 42.1 mg/kg in data set [10]. For the same compound, the selectivity ratio in [4] (setting [14]) turned out to be 1.48; in data set [4] (setting [15]), 1.29; in [4] (setting [16]) it was 0.63; in data set [8] (setting [17]) it was 12.1; in data set [8] (setting [18]), 10.5; in data set [8] (setting [19]) it was 5.1. In addition, the TD50 in data set [4] was found to be 87.3 mg/kg. Moreover, the “hypnotic use, in words (Inoue et al)” value in [13] is given as “useful as hypnotic agents”. The LD50 at 72 h in data set [8] is 710 mg/kg.
`Cc1ccccc1OCC(O)CO` (stereo not drawn) [Mephenesin, 3-(o-tolyloxy)-1,2-propanediol]: the ED50 in [1] (mice) was found to be 600 mg/kg; with mice [2], 527 mg/kg; in the data set on mice [5], 551 mg/kg; in the data set with mice [9] it was 498 mg/kg. Also, the “hypnotic activity” value in the data set with mice [3] is listed as “potent hypnotic activity”. The selectivity ratio in data set [4] (setting [14]) turned out to be 1.5; in data set [4] (setting [15]), 1.66; in data set [4] (setting [16]) it was 1.56; in data set [8] (setting [17]), 3.7; in [8] (setting [18]), 4.1; in data set [8] (setting [19]), 3.8. For the same compound, in [4], the TD50 was 824 mg/kg. Also, in data set [8], the LD50 at 72 h is 2020 mg/kg.
As for `CN1C(=O)CCS(=O)(=O)C1c1ccc(Cl)cc1` (stereo not drawn) [Chlormezanone, 2-(p-chlorophenyl)tetrahydro-3-methyl-4H-1,3-thiazin-4-one 1,1-dioxide], the ED50 in data set [1] (mice) was found to be 28.8 mg/kg; in the data set with mice [2], 208 mg/kg; in the data set on mice [5] it was 156 mg/kg; in the data set with mice [9], 222 mg/kg; in data set [10], 258 mg/kg. Moreover, in the data set on mice [3], the “hypnotic activity” value is “potent hypnotic activity”. In addition, the selectivity ratio in data set [4] (setting [14]) was determined as 2.47; in data set [4] (setting [15]) it was 1.74; in data set [4] (setting [16]), 1.86; in data set [8] (setting [17]) it was 8.6; in [8] (setting [18]), 6.1; in data set [8] (setting [19]) it was 6.5. The TD50 in data set [4] worked out at 386 mg/kg. For the same compound, the LD50 at 72 h in [8] was 1340 mg/kg.
For the compound `Cc1cccc(Nc2ccccc2C(=O)O)c1C` [Mefenamic acid, N-(2,3-xylyl)anthranilic acid], in the data set on carageenin-induced edema (200 mg of Mefenamic acid required, same condition (oral, rats)), the “decrease in carageenin-induced edema” value was 25%.
Take `Cc1ccccc1-n1c(CF)nc2ccc([N+](=O)[O-])cc2c1=O` [2-fluoromethyl-3-(o-tolyl)-6-nitro-4(3H)-quinazolinone]: the ED50 in the data set on mice [2], in the data set with mice [5] and with mice [9] was more than 100 mg/kg throughout. Also, the TD50 in data set [4] is more than 100 mg/kg. Further, in data set [13], the “hypnotic use, in words (Inoue et al)” value was “useful as hypnotic agents”.

Source of the values: patent US3966731A, “2-Fluoromethyl-3-o-tolyl-6-amino-4(3H)-quinazolinone” (Tanabe Seiyaku Co., Ltd., priority 1973, dated 1976).
